Tests used:
[1] = test system: Foxp3+ regulatory T cells; experiment: In vitro regulatory T cell (Foxp3+ Treg) production from human peripheral blood CD4 T cells; type: cell-based; conditions: anti-CD3/anti-CD28, TGFβ-1, IL-2, 2.5 μM, 7 days
Experimental: Human peripheral blood (AllCells) and phosphate buffered saline (PBS) were mixed in a ratio of 1:1 to prepare a mixture, followed by allowing the mixture to slowly rise so as not to be mixed into the upper layer of Histopaque (Sigma). After centrifugation at 350 g for 20 minutes, only the monocyte layer in the middle layer was collected and washed with HBSS (Hanks' Balanced Salt Solution, Gibco®). After washing with MACS buffer (Miltenyi Biotec) once more to obtain T-cells, positive selection (autoMACS seperator, Miltenyi Biotec) was performed with CD4 Microbeads (Miltenyi Biotec). The T-cells collected by the above method were prepared by resuspending the cells in RPMI-fetal bovine serum (FBS) 10%+2-ME (mercaptoethanol) medium at 5×10^5/ml. For T-cell activation, 10 μg/ml anti-CD3 (eBioscience™) was dispensed by 150 μl into a 48-well plate, reacted in a cell incubator (37° C., 5% CO2 incubator) for 3 hours, and washed with phosphate buffered saline to prepare the plate. 250 μl of resuspended T-cells was dispensed onto the prepared plate, and each well was treated with 2 μg/ml of anti-CD28 (eBioscience™), 5 ng/ml of TGFβ-1 (R&D systems), and 50 U/ml of IL-2 (Miltenyi Biotec). Each 5 μl of compounds at a concentration of 2.5 μM diluted in RPMI+2ME medium was used for treatment, followed by culturing the same in a cell incubator (37° C., 5% CO2 incubator) for 7 days. As a control, 5 μl of 0.05% dimethylsulfoxide (DMSO)/RPMI medium was used for treatment. After 7 days, in order to confirm effects of producing regulatory T cells, the cultured cells were recovered to determine the presence of Foxp3 protein.
The recovered cells were placed in a 5 ml FACS tube (BD Falcon) and washed with 1 ml of phosphate buffered saline. The cells were resuspended in 0.1 ml of FACS buffer (0.1% NaN3, 1% FBS) and treated with 1 μg of human immunoglobulin G (Human IgG, Sigma) to prevent non-specific binding of the antibody. After reacting at 4° C. for 15 minutes, the cells were washed with FACS buffer. Then, 1 ml of Fixation/Permeabilization solution (eBioscience™) was added to the FACS tube containing each sample, followed by reaction at 4° C. for 1 hour. Thereafter, the product was washed twice with a Permeabilization buffer (eBioscience™). Then, 0.25 μg of Foxp3 monoclonal antibody (eBioscience™) was used for treatment, followed by staining the sample for 4 to 30 minutes. The cells were washed twice with the permeabilization buffer, suspended in 0.3 ml of FACS buffer, and measured by flow cytometry.

[2] = test system: C57BL/6 mice with DSS-induced inflammatory bowel disease; experiment: DSS-induced inflammatory bowel disease model, severity index and colon weight:length ratio; type: in vivo, mouse; conditions: 20 mg/kg oral daily, compared to solvent control; for inflammatory bowel disease severity index: 2nd to 11th day, 10th day of the experiment; for colon weight:length ratio (intestinal inflammation): 15th day of the experiment
Experimental: The 1.5% DSS solution was changed at an interval of 2 days. Sterile distilled water was provided for drinking from the 8th day of the experiment. Body weight and severity index were measured at an interval of 2 days from the 0th day of the experiment in order to confirm the onset of inflammatory bowel disease.
20 mg/kg of the compound per mouse was completely dissolved in DMSO corresponding to 10% (v/v) of the administered dose, and then diluted in a cremophor EL-phosphate buffered saline mixture in order to produce the final DMSO:Cremophor EL:phosphate buffered saline (1:1:8, v/v/v), followed by oral administration of 200 μl daily for a total of 10 times from the 2nd to 11th days of the experiment. An inflammatory bowel disease severity index was visually observed and recorded at an interval of 2 days according to a severity index system classified into 0 to 10 levels.
Inflammatory bowel disease symptoms were evaluated by summing the scores of three items according to the following items (Table 3).

[3] = test system: IL-1β, IL-6, IL-17A, TNF-α, IL-10 and Foxp3 expression in colon lesions; experiment: mRNA expression of inflammatory and immunomodulatory factors in colon of DSS mice (real-time PCR); type: in vivo, mouse; conditions: 20 mg/kg oral, 15th day, compared to solvent control
Source text: On the 15th day of the experiment, the colon of the mouse was excised to prepare an mRNA sample. In order to extract mRNA, the colon tissue was ground with a homogenizer to acquire a homogeneous suspension. […] From the isolated RNA, cDNA was synthesized by reverse transcription followed by confirming the expression of inflammatory cytokines through real-time polymerase chain reaction (PCR) using iQ SYBR-Green Supermix (Bio-rad) in the CFX96 (Bio-rad) detection system. Relative values of the enzyme expression levels were compared by the ΔΔct method using GAPDH as a control enzyme. Herein, one (1) fold was set using the normal mouse colon as a control.
The real-time polymerase chain reaction was implemented under the conditions of cycles at an annealing temperature of 58′° C. and the following primer sequences were used.

[4] = test system: IFN-γ, IL-17A, IL-1β, IL-10 and Foxp3 expression in spinal cord lesions; experiment: mRNA expression of inflammatory and immunomodulatory factors in spinal cord of EAE mice (real-time PCR); type: in vivo, mouse; conditions: 20 mg/kg i.p., 42nd day, compared to solvent control
Source text: On the 42nd day of the experiment, the spinal cord of the mouse was excised to prepare an mRNA sample. In order to extract mRNA, the spinal cord tissue was ground with a homogenizer to obtain a homogeneous suspension. […] Then, cDNA was synthesized from the isolated RNA by reverse transcription, and the expression of inflammatory cytokines was investigated through real-time polymerase chain reaction (PCR) using iQ SYBR-Green Supermix (Bio-rad) in the CFX96 (Bio-rad) detection system. Relative values of the enzyme expression levels were compared by the ΔΔct method using GAPDH as a control enzyme. Herein, one (1) fold was set using the WT mouse spinal cord as a control.
The real-time polymerase chain reaction was implemented under the conditions of cycles at an annealing temperature of 58° C., and the following primer sequences were used.

[5] = test system: C57BL/6 mice with autoimmune encephalomyelitis (EAE); experiment: Experimental autoimmune encephalomyelitis (EAE) model of multiple sclerosis, severity index; type: in vivo, mouse; conditions: 20 mg/kg intraperitoneally daily 12th to 17th day
Experimental: On day 0, myelin oligodendrocyte glycoproteins 35-55 (MOG 35-55, Peptron) (200 μg), heat-killed Mycobacterium tuberculosis (Difco, Cat No. 231141) (500 μg), and adjuvant (Complete Freund's adjuvant, Sigma Aldrich, Cat No. F5506) were mixed together and then submerged for 7 minutes. After subcutaneous injection of 100 μl of the submerged peptide into both flanks of each of C57BL/6 mice (7 weeks old, female, 17±2 g), 100 μl of pertussis toxin (Sigma Aldrich. Cat No. P2980) (200 ng) was administered intravenously to the tail.
On the 2nd day of the experiment, the same amount of pertussis toxin was administered intravenously. The mice were checked for immersion leaking from the injected site, and visually observed from the 7th day of the experiment in order to confirm the onset of multiple sclerosis.
The multiple sclerosis index was visually observed and recorded at an interval of 2 days from the 7th day of the experiment in the severity index system classified into 0-5 stages, and autoimmune encephalomyelitis symptoms were indexed according to the following items (see Table 4).

[6] = scale 0-5, solvent control 3.33±0.17

Compound	generation of Foxp3+ regulatory T cells [1]	inflammatory bowel disease severity index [2]	colon weight:length ratio (intestinal inflammation) [2]	other results
Cc1nc(NC(=O)Cc2c[nH]c3ccc(F)cc23)ccc1Br [Compound 2, N-(5-bromo-6-methylpyridin-2-yl)-2-(5-fluoro-1H-indol-3-yl)acetamide]	promoted	–	–	–
Cc1nc(NC(=O)Cc2c[nH]c3ccccc23)ccc1Br [Compound 5, N-(5-bromo-6-methylpyridin-2-yl)-2-(1H-indol-3-yl)acetamide]	promoted	–	–	–
CN(C(=O)Cc1c[nH]c2ccccc12)c1nc2ccccc2s1 [Compound 44, N-(benzo[di]thiazol-2-yl)-2-(1H-indol-3-yl)-N-methyl acetamide]	promoted	statistically significant therapeutic effects	significantly suppressed	–
CN(C(=O)Cc1c[nH]c2ccc(F)cc12)c1nc2ccccc2s1 [Compound 60, N-(benzo[di]thiazol-2-yl)-2-(5-fluoro-1H-indol-3-yl)-N-methyl acetamide]	–	statistically significant therapeutic effects	significantly suppressed	–
Cc1nc(NC(=O)Cc2c[nH]c3ccc(Cl)cc23)ccc1Br [Compound 8, N-(5-bromo-6-methylpyridin-2-yl)-2-(5-chloro-1H-indol-3-yl)acetamide]	promoted	statistically significant therapeutic effects	significantly suppressed	expression level of Foxp3 in the colon lesion [3]: significantly increased; expression level of IL-1β in colon lesions [3]: significantly reduced; expression level of IL-6 in colon lesions [3]: significantly reduced; expression level of IL-10 in the colon lesion [3]: significantly increased; expression level of IL-17A in colon lesions [3]: significantly reduced; expression level of TNF-α in colon lesions [3]: significantly reduced; expression level of Foxp3 in spinal cord lesions [4]: significantly increased; expression level of IFN-γ in the spinal cord lesion [4]: significantly reduced; expression level of IL-1β in the spinal cord lesion [4]: significantly reduced; expression level of IL-10 in spinal cord lesions [4]: significantly increased; expression level of IL-17A in the spinal cord lesion [4]: significantly reduced; treatment effects on EAE severity index compared to solvent control from the 16th day, maintained after administration was stopped [5]: statistically significant treatment effects; severity index (EAE), 18th day, acute reaction period [5, 6]: 1.17±0.56; severity index (EAE), 36th day, chronic reaction period [5, 6]: 1.17±0.56
O=C(Cc1c[nH]c2ccccc12)Nc1cc(Cl)cc(Cl)c1 [Compound 81, N-(3,5-dichlorophenyl)-2-(1H-indol-3-yl)acetamide]	promoted	–	–	–
O=C(Cc1c[nH]c2ccccc12)Nc1ccc(Cl)c(F)n1 [Compound 23, N-(5-chloro-6-fluoropyridin-2-yl)-2-(1H-indol-3-yl)acetamide]	promoted	–	–	–
COc1cc(NC(=O)Cc2c[nH]c3ccccc23)cc(OC)c1OC [Compound 71, 2-(1H-indol-3-yl)-N-(3,4,5-trimethoxyphenyl)acetamide]	promoted	–	–	–
CN(C(=O)Cc1c[nH]c2ccc(Cl)cc12)c1nc2ccccc2s1 [Compound 47]	promoted	–	–	–

Source: patent US20230020507A1, “COMPOUND AND USE THEREOF IN TREATING AUTOIMMUNE DISEASES” (PARENCHYMA BIOTECH INC., priority 2019, published 2023)
